The text below walks through data of ChEMBL document CHEMBL4261526 (Medchemcomm, 2017).

The nature of data set [1]: in vitro. The following applies: human, HepG2 cells.
Description: Cytotoxicity against human HepG2 cells assessed as cell viability at 1 uM by MTT assay relative to control
The target in data set [2] is T1, Cholinesterase (Homo sapiens, UniProt P06276). In words: Inhibition of human serum BuChE using butyrylthiocholine iodide as substrate preincubated for 20 mins followed by substrate addition and measured for 5 mins by Ellman's assay.
The nature of data set [3]: in vitro. As to conditions: human, HepG2 cells. This is another data set of the same source.
Description: Cytotoxicity against human HepG2 cells assessed as cell viability at 10 uM by MTT assay relative to control
The nature of data set [4]: in vitro. As to conditions: human, HepG2 cells. The source holds these as a separate data set.
Description: Cytotoxicity against human HepG2 cells assessed as cell viability at 300 uM by MTT assay relative to control
Data set [5] deals with T2, Acetylcholinesterase (Homo sapiens, UniProt P22303). As to the kind of experiment: Inhibition of recombinant human AChE using acetylthiocholine iodide as substrate preincubated for 20 mins followed by substrate addition and measured for 5 mins by Ellman's assay. In general terms: In Ellman's method for cholinesterases, released thiocholine reacts with DTNB.
T2 sequence (P22303 whole entry): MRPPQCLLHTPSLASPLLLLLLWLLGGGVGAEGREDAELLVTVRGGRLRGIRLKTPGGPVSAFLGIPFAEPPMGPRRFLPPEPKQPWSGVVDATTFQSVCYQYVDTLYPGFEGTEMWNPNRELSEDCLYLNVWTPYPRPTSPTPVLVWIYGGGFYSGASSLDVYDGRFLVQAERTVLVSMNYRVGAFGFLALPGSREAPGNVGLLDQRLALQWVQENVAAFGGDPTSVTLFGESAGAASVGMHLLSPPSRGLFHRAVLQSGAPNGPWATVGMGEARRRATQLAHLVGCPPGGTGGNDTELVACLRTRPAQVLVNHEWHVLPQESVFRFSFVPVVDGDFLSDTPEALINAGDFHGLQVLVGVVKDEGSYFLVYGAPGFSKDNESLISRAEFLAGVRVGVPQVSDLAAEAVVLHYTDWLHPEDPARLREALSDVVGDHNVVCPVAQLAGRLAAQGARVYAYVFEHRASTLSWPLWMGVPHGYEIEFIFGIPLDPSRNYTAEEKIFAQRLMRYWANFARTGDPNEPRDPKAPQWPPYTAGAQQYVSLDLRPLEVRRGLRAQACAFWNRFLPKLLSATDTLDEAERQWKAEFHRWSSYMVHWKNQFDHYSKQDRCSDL
Data set [6] is described as follows: in vitro. As to conditions: human, HepG2 cells. This is another data set of the same source.
Description: Cytotoxicity against human HepG2 cells assessed as cell viability at 100 uM by MTT assay relative to control
Data set [7] has as its target T1, Cholinesterase. In words: Inhibition of recombinant human BuChE using butyrylthiocholine as substrate preincubated for 30 mins followed by substrate addition and measured for 20 mins by Ellman's assay.
The species entered for another data set is Homo sapiens. As to the kind of experiment: Selectivity ratio of IC50 for recombinant human BuChE to IC50 for recombinant human AChE.
The target of data set [8] is T2, Acetylcholinesterase. In words: Inhibition of recombinant human AChE using acetylthiocholine iodide as substrate preincubated for 30 mins followed by substrate addition and measured for 20 mins by Ellman's assay.
The target in data set [9] is T2, Acetylcholinesterase. In words: Potency index, ratio of tacrine IC50 to test compound IC50 for recombinant human AChE.
In data set [10] the target is T1, Cholinesterase. As to the kind of experiment: Potency index, ratio of tacrine IC50 to test compound IC50 for human serum BuChE.

T1 sequence (P06276 whole entry): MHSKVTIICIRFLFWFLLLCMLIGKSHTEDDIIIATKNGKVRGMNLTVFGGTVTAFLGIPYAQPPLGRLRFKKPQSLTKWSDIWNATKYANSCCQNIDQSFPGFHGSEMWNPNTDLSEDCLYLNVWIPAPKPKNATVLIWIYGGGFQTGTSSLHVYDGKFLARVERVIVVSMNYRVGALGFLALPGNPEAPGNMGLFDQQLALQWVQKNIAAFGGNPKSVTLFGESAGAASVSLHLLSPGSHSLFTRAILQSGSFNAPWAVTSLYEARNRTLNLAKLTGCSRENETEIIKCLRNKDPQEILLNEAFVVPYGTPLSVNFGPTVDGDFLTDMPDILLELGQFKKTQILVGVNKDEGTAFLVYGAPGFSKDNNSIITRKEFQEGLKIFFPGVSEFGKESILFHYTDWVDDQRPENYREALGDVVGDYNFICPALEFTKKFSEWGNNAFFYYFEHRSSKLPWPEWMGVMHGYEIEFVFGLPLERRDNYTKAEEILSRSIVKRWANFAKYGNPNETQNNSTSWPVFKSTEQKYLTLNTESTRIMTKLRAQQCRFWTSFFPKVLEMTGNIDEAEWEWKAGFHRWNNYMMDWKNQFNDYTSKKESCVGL

The viability is the share of living cells, or the viability signal relative to a control. Read a high viability as better survival. One may read the IC50 as the point on the concentration scale where inhibition reaches its midpoint. In the case of `Cn1c2nc3ccccc3c-2c(NCCCCNc2c3c(nc4ccccc24)CCCC3)c2ccccc21`, in the data set “in vitro [1]”, the viability at 1 µM came to 99.5%. Also, the IC50 against Cholinesterase [2] came out at 21.8 nM; at Acetylcholinesterase [5], 53 nM. Besides, the viability at 10 µM in the data set “in vitro [3]” worked out at 37.2%. Further, in “in vitro [4]”, the viability at 300 µM was 34.8%. This compound also returned a viability at 100 µM in “in vitro [6]” of 33.8%.

As for `Cn1c2nc3ccccc3c-2c(NCCCCCCNc2c3c(nc4ccccc24)CCCC3)c2ccccc21`, the viability at 1 µM in the data set “in vitro [1]” worked out at 40.9%. The IC50 was found to be 9 nM against Cholinesterase [2] and 1.25 nM on Acetylcholinesterase [5]. The same compound gave a viability at 10 µM in the data set “in vitro [3]” of 34.9%. Further, the viability at 300 µM in the data set “in vitro [4]” amounted to 36.5%. The compound further returned a viability at 100 µM in “in vitro [6]” of 36.2%.

As for `Nc1c2c(nc3cc(Cl)ccc13)C[C@H]1C=C(CCCCn3cc(CO)nn3)C[C@H]2C1`, the IC50 on Cholinesterase [7] is 210 nM; on Acetylcholinesterase [8], 0.43 nM. Also, the Ratio IC50 in the data set filed under Homo sapiens came out at 488.

For `Cn1c2nc3ccccc3c-2c(NCCCCCCCCNc2c3c(nc4ccccc24)CCCC3)c2ccccc21`, in the data set “in vitro [1]”, the viability at 1 µM was 78.1%. Besides, the IC50 was 2.29 nM on Cholinesterase [2] and 0.95 nM at Acetylcholinesterase [5]. The viability at 10 µM in “in vitro [3]” was determined as 41.4%. Besides, the figures for the Ratio IC50 on Acetylcholinesterase [9] and on Cholinesterase [10] were 368 and 17.4, respectively. In “in vitro [4]”, this compound showed a viability at 300 µM of 37.9%. In addition, the viability at 100 µM in “in vitro [6]” was determined as 38.4%.
